According to patent publication US10000791B2, “Measurement method for human pancreatic lipase activity” (ASAHI KASEI PHARMA CORPORATION, priority 2013, dated 2018):

Target: T1, human pancreatic lipase (Homo sapiens, UniProt P16233)
T1 construct: As a sample, pooled serum or a control sample (a control containing a pancreatic lipase) was used; from tissue; host or cells: human serum (pooled serum, normal samples, heparin-administered samples) and control sera
T1 sequence (P16233 17-465): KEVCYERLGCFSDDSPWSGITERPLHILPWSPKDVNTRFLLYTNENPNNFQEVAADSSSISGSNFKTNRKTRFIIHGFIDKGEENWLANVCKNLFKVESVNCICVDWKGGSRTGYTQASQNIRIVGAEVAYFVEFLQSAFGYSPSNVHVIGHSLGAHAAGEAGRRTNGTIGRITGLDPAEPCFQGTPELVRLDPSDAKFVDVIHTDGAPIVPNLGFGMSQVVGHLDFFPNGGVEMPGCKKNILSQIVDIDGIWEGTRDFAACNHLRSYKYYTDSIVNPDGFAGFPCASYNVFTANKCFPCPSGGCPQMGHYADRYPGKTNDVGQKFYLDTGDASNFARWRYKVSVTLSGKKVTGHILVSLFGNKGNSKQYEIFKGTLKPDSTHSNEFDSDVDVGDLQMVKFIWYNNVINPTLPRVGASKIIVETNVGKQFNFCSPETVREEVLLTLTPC
Assay: lipase activity measured in control, normal and heparin-administered samples with each reagent (1,2-dioleoyl glycerol, UV method; Liquitech Lipase Color II for verification)
Assay type: biochemical
Settings: Recombinant pancreatic lp-containing serum
Description: A mixture of the substrate stock solution and the R-1 in a proportion of 1:2 was used as a first reagent. The R-2 was directly used as a second reagent. As a sample, pooled serum or a control sample (a control containing a pancreatic lipase) was used. A proportion in amount among the sample, the first reagent and the second reagent was set as sample:first reagent:second reagent of 0.01 ml:0.18 ml:0.06 ml. The sample was added to the first reagent, the resultant mixture was heated at 37° C. for 5 minutes, the second reagent was added thereto, and a change rate of an absorbance at 340 nm based on reduced NADP was obtained at 37° C. from 3 minutes after the addition of the second reagent to 4 minutes after the addition, and then, the lipase activity was calculated by using a molecular extinction coefficient of 6300 L/mol·cm of the reduced NADP. Besides, as a sample blank, saline was used instead of a sample, an absorbance was measured by using the reagent for sample blank obtained by removing MGLPII from the second reagent, and a difference between the thus measured two values was defined as an enzyme activity value. For the measurement, Hitachi automatic analyzer Model H7170 or H7080 was used.
Similarly to Example 1, a mixture of the substrate stock solution and the R-1 in a proportion of 1:2 was used as a first reagent. Except for this, the measurement was performed in the same manner as in Example 1.
A commercially available reagent for a resorufin colorimetric method, “Liquitech Lipase Color II” manufactured by Roche Diagnostics using 1,2-O-dilauryl-rac-glycerol-3-glutaric acid-(6-methylresorufin)ester (DGGR), which is regarded not to be influenced by a non-pancreatic lipase, such as a lipoprotein lipase or a hepatic lipase, appearing in blood due to administration of heparin, was used for verifying the effect of the present example. “Liquitech Lipase Color II” was used in accordance with the package insert, and a special calibrator was used for calculating the enzyme activity. […] The concentration of each bile acid used in the present example was set to be the same as that in the comparative example.
As samples, a control, non-heparin-administered samples (normal samples), and heparin-administered samples were used.
The compositions of the reagents were the same as those of Example 2. As a comparative example, NaDCA (in a concentration of 40 mmol/L in the R-1) was used as the bile acid, and the reaction solution was adjusted to pH 8.15 (by the Bicine buffer) for measuring a heparin-administered sample.
It is noted that CRM-001b containing a human pancreatic recombinant lipase dissolved not in distilled water but in a pooled serum was used as the calibrator to calculate the lipase activity.
As a bile acid of the present example and a reference example, NaTDCA was selected, and the pH dependence with the pH of a reaction solution changed in a range of 6.2 to 7.6 was examined. It is noted that a case of pH 7.6 was used as the reference example. An MES buffer was used for adjusting pH to 6.2 and 6.4, and the BES buffer was used for adjusting the other pHs. As samples, (six) control samples (controls each containing a pancreatic lipase) and (nine) heparin-administered samples were used. As a comparative example, NaDCA (in a concentration of 40 mmol/L in the R-1) was used as the bile acid, and a reaction solution having pH 8.15 (the Bicine buffer) was used. Besides, “Liquitech Lipase Color II” manufactured by Roche Diagnostics was used for verifying the effect of the present example.

Row | SMILES | lipase activity (Table 5) (pH 7.0) [U/L] | lipase activity (Table 5) (pH 7.95) [U/L] | lipase activity (Table 3) (pH 6.2) [U/L] | lipase activity (Table 3) (pH 6.4) [U/L] | lipase activity (Table 3) (pH 6.6) [U/L] | lipase activity (Table 3) (pH 6.9) [U/L] | lipase activity (Table 3) (pH 7.2) [U/L] | lipase activity (Table 3) (pH 7.4) [U/L] | lipase activity (Table 3) (pH 7.6) [U/L]
1 | C[C@H](CCC(=O)NCC(=O)[O-])[C@H]1CC[C@H]2[C@@H]3[C@H](O)C[C@@H]4C[C@H](O)CC[C@]4(C)[C@H]3CC[C@]12C.[Na+] [NaGCDCA, sodium glycochenodeoxycholate] | 166.1 | 72.4 |  |  |  |  |  |  | 
2 | C[C@H](CCC(=O)NCCS(=O)(=O)[O-])[C@H]1CC[C@H]2[C@@H]3CC[C@@H]4C[C@H](O)CC[C@]4(C)[C@H]3C[C@H](O)[C@]12C.[Na+] [NaTDCA, sodium taurodeoxycholate] |  |  | 180.8 | 184.7 | 211.9 | 233.1 | 229.8 | 217.3 | 168.8
